Some results are limits rather than exact numbers.

The subject of this experiment is HEK293 cells. Kind of experiment: HEK293 VLCFA-LPC IC50 determination (13C-labeled C26:0 LPC by UHPLC/MS). The experiment is classed as cell-based, human. As to conditions: Homo sapiens, HEK293, HEK293 cells; average of one or more replicates; read-out: Average HEK293 IC50. The gist of the method: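 Suspension HEK293 cells (final 0.5 million/mL after mixing with equal volume) incubated 48 hours with compound plus 13C-acetate (1.0 mg/mL in added media), shaking at 37° C. Lipids extracted with hexane/isopropanol or methanol, C13:0 LPC standard. UHPLC/MS of 13C-labeled C26:0 LPC (638.500/104.100 m/z); IC50 by four-parameter fit.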
Turning to `O=C(Nc1ccn(-c2ccccc2)n1)C1(c2ccccc2)CC1(Cl)Cl` (stereo not drawn) [Compound 141, 2,2-dichloro-1-phenyl-N-(1-phenylpyrazol-3-yl)cyclopropanecarboxamide], the IC50 stood at 340 nM.
For `O=C(Nc1ccn(-c2ccccc2)n1)C1(c2ccccc2)CCCCC1` [Compound 142, 1-phenyl-N-(1-phenylpyrazol-3-yl)cyclohexanecarboxamide], the IC50 was more than 5000 nM.
The value for `O=C(Nc1ccn(-c2ccccc2)n1)C1(c2ccccc2)COC1` [Compound 144, 3-phenyl-N-(1-phenylpyrazol-3-yl)oxetane-3-carboxamide] was 260 nM; that for `O=C(Nc1ccn(-c2ccccc2)n1)[C@]1(c2ccccc2)CC12CCCC2` [Compound 145, (2R)-2-phenyl-N-(1-phenylpyrazol-3-yl)spiro[2.4]heptane-2-carboxamide] was more than 5000 nM; that for `O=C(Nc1ccn(-c2ccccc2)n1)[C@@]1(c2ccccc2)CC12CCC2` [Compound 146, (2S)-2-phenyl-N-(1-phenylpyrazol-3-yl)spiro[2.3]hexane-2-carboxamide] was 87 nM.
As for `O=C(Nc1ccn(-c2ccnc(F)c2)n1)C1(c2ccccc2)CC1(Cl)Cl` (stereo not drawn) [Compound 147, 2,2-dichloro-N-[1-(2-fluoro-4-pyridyl)pyrazol-3-yl]-1-phenyl-cyclopropanecarboxamide], the IC50 is 280 nM.
Then `O=C(Nc1ccn(-c2ccnc(F)c2)n1)C1(c2ccccc2)CCCCC1` [Compound 148, N-[1-(2-fluoro-4-pyridyl)pyrazol-3-yl]-1-phenyl-cyclohexanecarboxamide], with more than 5000 nM; and `O=C(Nc1ccn(-c2ccnc(F)c2)n1)C1(c2ccccc2)COC1` [Compound 149, N-[1-(2-fluoro-4-pyridyl)pyrazol-3-yl]-3-phenyl-oxetane-3-carboxamide], with 660 nM.
The value for `O=C(Nc1ccn(-c2ccnc(F)c2)n1)[C@@]1(c2ccccc2)CC12CCCC2` [Compound 150, (2S)-N-[1-(2-fluoro-4-pyridyl)pyrazol-3-yl]-2-phenyl-spiro[2.4]heptane-2-carboxamide] was less than 50 nM; that for `O=C(Nc1ccn(-c2ccnc(F)c2)n1)[C@@]1(c2ccccc2)CC12CCC2` [Compound 151, (2S)-N-[1-(2-fluoro-4-pyridyl)pyrazol-3-yl]-2-phenyl-spiro[2.3]hexane-2-carboxamide] was less than 50 nM; that for `O=C(Nc1ccn(-c2ccnc(F)c2)n1)C(c1ccccc1)C1CCCC1` (stereo not drawn) [Compound 152, 2-cyclopentyl-N-[1-(2-fluoro-4-pyridyl)pyrazol-3-yl]-2-phenyl-acetamide] was 1700 nM.
Then `O=C(Cc1ccccc1)Nc1ccn(-c2ccc(C(F)(F)F)cc2)n1` [Compound 153, 2-phenyl-N-[1-[4-(trifluoromethyl)phenyl]pyrazol-3-yl]acetamide], with more than 5000 nM; and `O=C(Nc1ccn(-c2ccc(C(F)(F)F)cc2)n1)C1(c2ccccc2F)CC1` [Compound 154, 1-(2-fluorophenyl)-N-[1-[4-(trifluoromethyl)phenyl]pyrazol-3-yl]cyclopropanecarboxamide], with 360 nM.
On to `O=C(Cc1ccccc1F)Nc1ccn(-c2ccc(C(F)(F)F)cc2)n1` [Compound 155, 2-(2-fluorophenyl)-N-[1-[4-(trifluoromethyl)phenyl]pyrazol-3-yl]acetamide], for which the IC50 is more than 5000 nM.
As for `O=C(Nc1ccn(-c2ccc(C(F)(F)F)cc2)n1)C1(c2ccccc2)CC1` [Compound 156, 1-phenyl-N-[1-[4-(trifluoromethyl)phenyl]pyrazol-3-yl]cyclopropanecarboxamide], the concentration for half-maximal inhibition (IC50) is more than 2000 nM.
The value for `O=C(Cc1ccccc1)Nc1ccn(-c2cccc(C(F)(F)F)c2)n1` [Compound 157, 2-phenyl-N-[1-[3-(trifluoromethyl)phenyl]pyrazol-3-yl]acetamide] was more than 5000 nM; that for `O=C(Cc1ccccc1F)Nc1ccn(-c2cccc(C(F)(F)F)c2)n1` [Compound 158, 2-(2-fluorophenyl)-N-[1-[3-(trifluoromethyl)phenyl]pyrazol-3-yl]acetamide] was 2900 nM.
The value for `O=C(Nc1ccn(-c2cccc(C(F)(F)F)c2)n1)C1(c2ccccc2)CC1` [Compound 159, 1-phenyl-N-[1-[3-(trifluoromethyl)phenyl]pyrazol-3-yl]cyclopropanecarboxamide] was more than 5000 nM; that for `O=C(Cc1ccccc1)Nc1ccn(-c2cc(F)ccc2F)n1` [Compound 160, N-[1-(2,5-difluorophenyl)pyrazol-3-yl]-2-phenyl-acetamide] was more than 5000 nM.
Then `O=C(Nc1ccn(-c2cc(F)ccc2F)n1)C1(c2ccccc2F)CC1` [Compound 161, N-[1-(2,5-difluorophenyl)pyrazol-3-yl]-1-(2-fluorophenyl)cyclopropanecarboxamide], with 980 nM; and `O=C(Cc1ccccc1F)Nc1ccn(-c2cc(F)ccc2F)n1` [Compound 162, N-[1-(2,5-difluorophenyl)pyrazol-3-yl]-2-(2-fluorophenyl)acetamide], with 740 nM.
Consider `O=C(Nc1ccn(-c2cc(F)ccc2F)n1)C1(c2ccccc2)CC1` [Compound 163, N-[1-(2,5-difluorophenyl)pyrazol-3-yl]-1-phenyl-cyclopropanecarboxamide], for which the 50% inhibitory concentration (IC50) was 4500 nM.
The value for `O=C(Nc1ccn(-c2ccnc(F)c2)n1)[C@]1(c2ccccc2)CC12CCCC2` [Compound 164, (2R)-N-[1-(2-fluoro-4-pyridyl)pyrazol-3-yl]-2-phenyl-spiro[2.4]heptane-2-carboxamide] was more than 5000 nM; that for `CC1(C)CC1(C(=O)Nc1ccn(-c2ccnc(F)c2)n1)c1ccccc1` (stereo not drawn) [Compound 165, N-[1-(2-fluoro-4-pyridyl)pyrazol-3-yl]-2,2-dimethyl-1-phenyl-cyclopropanecarboxamide] was 50 nM.
Then `CCC1(C)CC1(C(=O)Nc1ccn(-c2ccccc2)n1)c1ccccc1` (stereo not drawn) [Compound 166, 2-ethyl-2-methyl-1-phenyl-N-(1-phenylpyrazol-3-yl)cyclopropanecarboxamide], with 630 nM; and `O=C(Nc1ccn(-c2ccccc2)n1)C(c1ccccc1)C1CCCC1` (stereo not drawn) [Compound 167, 2-cyclopentyl-2-phenyl-N-(1-phenylpyrazol-3-yl)acetamide], with more than 5000 nM; and `CCC1(C)CC1(C(=O)Nc1ccn(-c2ccnc(F)c2)n1)c1ccccc1` (stereo not drawn) [Compound 168, 2-ethyl-N-[1-(2-fluoro-4-pyridyl)pyrazol-3-yl]-2-methyl-1-phenyl-cyclopropanecarboxamide], with 86 nM.
Then `CSCC(C(=O)Nc1ccn(-c2ccccc2)n1)c1ccccc1` (stereo not drawn) [Compound 170, 3-methylsulfanyl-2-phenyl-N-(1-phenylpyrazol-3-yl)propanamide], with more than 5000 nM; and `CCC(C(=O)Nc1ccn(-c2ccnc(F)c2)n1)c1ccccc1` (stereo not drawn) [Compound 171, N-[1-(2-fluoro-4-pyridyl)pyrazol-3-yl]-2-phenyl-butanamide], with 140 nM; and `O=C(Nc1ccn(-c2ccnc(F)c2)n1)C1(c2ccccc2)CC(F)(F)C1` [Compound 172, 3,3-difluoro-N-[1-(2-fluoro-4-pyridyl)pyrazol-3-yl]-1-phenyl-cyclobutanecarboxamide], with 380 nM.
For `CCCC(C(=O)Nc1ccn(-c2ccnc(F)c2)n1)c1ccccc1` (stereo not drawn) [Compound 173, N-(1-(2-fluoropyridin-4-yl)-1H-pyrazol-3-yl)-2-phenylpentanamide], the 50% inhibitory concentration (IC50) is 72 nM.
For the compound `O=C(Nc1ccn(-c2ccnc(F)c2)n1)C1(c2ccccc2)CCOCC1` [Compound 174, N-[1-(2-fluoro-4-pyridyl)pyrazol-3-yl]-4-phenyl-tetrahydropyran-4-carboxamide], the concentration for half-maximal inhibition (IC50) is more than 5000 nM.
The value for `O=C(Nc1ccn(-c2ccnc(F)c2)n1)C(c1ccccc1)C1CC1` (stereo not drawn) [Compound 175, 2-cyclopropyl-N-[1-(2-fluoro-4-pyridyl)pyrazol-3-yl]-2-phenyl-acetamide] was 520 nM.
Turning to `CCCC(C(=O)Nc1ccn(-c2ccccc2)n1)c1ccccc1` (stereo not drawn) [Compound 176, 2-phenyl-N-(1-phenylpyrazol-3-yl)pentanamide], the half-inhibitory concentration (IC50) was 870 nM.
Then `O=C(Nc1ccn(-c2ccccc2)n1)C1(c2ccccc2)CC(F)(F)C1` [Compound 177, 3,3-difluoro-1-phenyl-N-(1-phenylpyrazol-3-yl)cyclobutanecarboxamide], with 790 nM.
For the compound `O=C(Nc1ccn(-c2ccccc2)n1)C1(c2ccccc2)CCOCC1` [Compound 178, 4-phenyl-N-(1-phenylpyrazol-3-yl)tetrahydropyran-4-carboxamide], the IC50 was more than 5000 nM.
The value for `O=C(Nc1ccn(-c2ccccc2)n1)C(c1ccccc1)C1CC1` (stereo not drawn) [Compound 179, 2-cyclopropyl-2-phenyl-N-(1-phenylpyrazol-3-yl)acetamide] was 1600 nM.
Then `O=C(Nc1ccn(-c2cncc(F)c2)n1)C1(c2ccccc2F)CC1` [Compound 180, 1-(2-fluorophenyl)-N-[1-(5-fluoro-3-pyridyl)pyrazol-3-yl]cyclopropanecarboxamide], with 20 nM; and `O=C(Cc1ccccc1)Nc1ccn(-c2ccc(F)cc2)n1` [Compound 181, N-[1-(4-fluorophenyl)pyrazol-3-yl]-2-phenyl-acetamide], with 250 nM.
Then `O=C(Nc1ccn(-c2ccc(F)cc2)n1)C1(c2ccccc2F)CC1` [Compound 182, 1-(2-fluorophenyl)-N-[1-(4-fluorophenyl)pyrazol-3-yl]cyclopropanecarboxamide], with 74 nM; and `O=C(Cc1ccccc1F)Nc1ccn(-c2ccc(F)cc2)n1` [Compound 183, 2-(2-fluorophenyl)-N-[1-(4-fluorophenyl)pyrazol-3-yl]acetamide], with 170 nM; and `O=C(Nc1ccn(-c2ccc(F)cc2)n1)C1(c2ccccc2)CC1` [Compound 184, N-[1-(4-fluorophenyl)pyrazol-3-yl]-1-phenyl-cyclopropanecarboxamide], with 280 nM.

Source of the values: US20180251431A1 (VERTEX PHARMACEUTICALS INCORPORATED, priority 2016, published 2018).
